According to patent publication US9200269B2, “β-glucuronidase inhibitor” (priority 2007, dated 2015):
Like-named read-outs stand apart in the source and are kept apart here.

Columns and labels:
[1] = target: T1, β-glucuronidase Type VII-A derived from Escherichia coli (Escherichia coli, UniProt P05804); test: Inhibition of β-glucuronidase activity (PNPG substrate, absorbance at 400 nm); type: biochemical; details: for Inhibition rate (%) Concentration 0.001%: 0.001 wt % in reaction solution
T1 construct: purchased Sigma-Aldrich Corporation
Protocol: 100 μL of a 2 mM PNPG aqueous solution, 40 μL of a 0.5 M phosphate buffer (pH 6.8), 38 μL of ion exchanged water and 2 μL of a 10 or 1 wt % dipropylene glycol (DPG) solution of various compounds or plant extracts were mixed in a bottle γ-ray sterilized in advance, and subsequently 20 μL of a β-glucuronidase aqueous solution adjusted to 16 units/mL was added, in order to allow the enzyme to react in a thermostat bath at 37° C. for 2 hours. Further, in the case of some of compounds, in addition to the above steps, the same experiment was performed using a 0.1 wt % DPG solution as well. As a result, the concentrations of the test compounds and plant extracts in the reaction solution were adjusted to 0.1, 0.01 and 0.001 wt %, respectively. Further, a product prepared by adding DPG in place of the above-mentioned compounds and plant extracts was used as a control, and a product prepared by adding ion exchanged water in place of an enzyme solution was used as a blank for each sample and control, and the respective products were allowed to react for 2 hours in the same manner. It should be noted that the plant extract sample was used as a solvent extract.
The above-mentioned reaction solution was diluted with a 0.2 M glycine buffer (pH 10.4) and measured for its absorbance at a wavelength of 400 nm. The relative activity inhibition rate of a β-glucuronidase was determined by using the obtained measurement value in accordance with the following equation. Absorbance change of control=Absorbance of control−Absorbance of blank for each control Absorbance change of sample=Absorbance of sample−Absorbance of blank for each sample Activity inhibition rate (%)=[(Absorbance change of control−Absorbance change of sample)/Absorbance change of control]×100

[2] = Urine catching pad urine addition test, urine odor intensity; set-up: species or system human; details: six-level score 0 to 5, average of five panelists; inhibitor 1 wt. % of water-absorbent polymer; 30 g human urine, 30° C.
Protocol: Sensory evaluation of odor was performed by six panelists, the evaluation was based on a six-level odor intensity indication method in which the odor intensity was indicated with an evaluation score of 0 to 5. In the evaluation score, “0” indicates no odor, “1” indicates odor which can be slightly perceived (detection threshold), “2” indicates odor which can be perceived to be urine odor but is weak (perception threshold), “3” indicates odor which can be easily perceived to be urine odor, “4” indicates strong urine odor, and “5” indicates extreme urine odor. The odor intensity was determined at an interval of 0.5.
Specifically, the urine catching pad was prepared by replacing only a water-absorbent polymer in the commercially available urine catching pad “Relief urine catching pad safe absorption (Anshin-Kyusyu)” (manufactured by Kao Corporation) with a water-absorbent polymer wherein the β-glucuronidase inhibitor of the present invention was added. The added amount of the inhibitor to the water-absorbent polymer was 1 wt. % with respect to the water-absorbent polymer, and was equivalent to 1.5 g/m^2 with respect to the urine catching pad.
A urine addition test was performed by using test pieces having dimensions of 19 cm by 7 cm being cut out from the urine catching pad, and using a test piece containing no β-glucuronidase inhibitor as a blank. The test was performed as follows: 30 g of human urine (a mixture of urine from five humans) were added to these test pieces cut out from the urine catching pad, and the urine odor intensity after 1 hour, after 24 hours, and after 48 hours under preservation at 30° C. was evaluated by five panelists based on the six-level odor intensity indication method as described in the item (2) of Reference Example 2.

[3] = 0.01 wt % in reaction solution, 1.6 units/mL enzyme, 37° C., 2 hours, pH 6.8
[4] = 0.1 wt % in reaction solution, 1.6 units/mL enzyme, 37° C., 2 hours, pH 6.8
[5] = 1.6 units/mL enzyme, 37° C., 2 hours, pH 6.8
[6] = 0.01 wt % in reaction solution, 1.6 units/mL enzyme, 37° C., 2 hours, pH 6.8, read-out: Inhibition rate (%) Concentration 0.01%
[7] = 0.1 wt % in reaction solution, 1.6 units/mL enzyme, 37° C., 2 hours, pH 6.8, read-out: Inhibition rate (%) Concentration 0.1%
[8] = 2 h, pH 6.8, read-out: Inhibition rate (%) Concentration 0.01%
[9] = 2 h, pH 6.8, read-out: Inhibition rate (%) Concentration 0.1%

T1 sequence (P05804 whole entry): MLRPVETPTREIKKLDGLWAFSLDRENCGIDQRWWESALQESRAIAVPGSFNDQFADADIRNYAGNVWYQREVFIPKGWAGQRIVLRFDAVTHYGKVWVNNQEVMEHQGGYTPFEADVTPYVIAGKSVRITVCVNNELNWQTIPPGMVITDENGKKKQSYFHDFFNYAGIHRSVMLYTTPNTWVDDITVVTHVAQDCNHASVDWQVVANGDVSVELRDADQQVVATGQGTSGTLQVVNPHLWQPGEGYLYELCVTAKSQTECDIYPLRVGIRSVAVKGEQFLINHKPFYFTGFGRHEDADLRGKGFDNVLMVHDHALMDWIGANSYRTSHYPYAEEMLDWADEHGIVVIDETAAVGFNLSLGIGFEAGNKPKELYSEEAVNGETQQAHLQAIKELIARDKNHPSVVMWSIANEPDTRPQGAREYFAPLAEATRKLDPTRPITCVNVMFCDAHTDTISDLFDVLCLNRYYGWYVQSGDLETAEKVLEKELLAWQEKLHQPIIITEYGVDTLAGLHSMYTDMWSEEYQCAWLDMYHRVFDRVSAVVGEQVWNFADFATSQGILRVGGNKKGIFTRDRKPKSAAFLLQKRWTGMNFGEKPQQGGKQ

| Molecule | Inhibition rate (%) Concentration 0.01% [1, 3] [%] | Inhibition rate (%) Concentration 0.1% [1, 4] [%] | inhibition at 0.01 wt % [1, 6] [%] | inhibition at 0.1 wt % [1, 7] [%] | further results |
| --- | --- | --- | --- | --- | --- |
| CC(=O)/C=C/C1C(C)=CCCC1(C)C (stereo not drawn) [α-Ionone, α-ionone] | 43.3 | 91.8 | – | – | – |
| CC(C)=CCCC1=CCC(C=O)CC1 (centres unmarked) [Myrac aldehyde, 4-(4-methyl-3-pentenyl)-3-cyclohexene-1-carboxyaldehyde] | 49.7 | 63.7 | – | – | – |
| O=C(O)[C@@H](O)[C@H]1OC(=O)[C@H](O)[C@H]1O [D-Glucaro-1,4-lactone, D-glucaro-1,4-lactone, reference compound] | – | – | 80.4 | 98 | Urine odor intensity After 1 hour [2]: 1.6; Urine odor intensity After 24 hours [2]: 1.9; Urine odor intensity After 48 hours [2]: 3.3; Inhibition rate (%) Concentration 0.001% [1, 5]: 31.1% |
| O=C1CCCCCCCCCOCCCCCO1 [11-Oxa-16-hexadecanolide, 11-oxa-16-hexadecanolide] | – | – | 26.8 | 62.8 | – |
| CC1=CC[C@H](C(C)C)C=C1 (racemic) [α-Phellandrene, α-phellandrene] | 50.0 | 93.6 | – | – | – |
| CC(=O)/C(C)=C/C1C(C)=CCCC1(C)C (centres unmarked) [γ-Methylionone, γ-methylionone] | 84.1 | 98.5 | – | – | Inhibition rate (%) Concentration 0.001% [1, 5]: 22.0% |
| CC(C)=CCCC(C)CC#N (centres unmarked) [Citronellyl nitrile, citronellyl nitrile] | 41.8 | 92.4 | – | – | – |
| CC(C)CCOCCc1ccccc1 [Phenylethyl isoamyl ether, phenylethyl isoamyl ether] | – | – | 60.8 | 88.8 | – |
| CC(C)c1ccc(C=O)cc1 [Cuminaldehyde, cuminaldehyde] | – | – | 37.8 | 97.1 | – |
| CCC=CCCC=CC=O [2,6-Nonadienal, 2,6-nonadienal] | – | – | 60.9 | 95.2 | – |
| CC(=O)OCC=Cc1ccccc1 [Cinnamyl acetate, cinnamyl acetate] | – | – | 51.3 | 96.2 | – |
| 3-methyl-4(5)-cyclopentadecen-1-one | 99.1 | 98.8 | – | – | Inhibition rate (%) Concentration 0.001% [1, 5]: 92.4% |
| CC(C)(O)CCCC1=CCC(C=O)CC1 (centres unmarked) [Lyral, 4-(4-hydroxy-4-methylpentyl)-3-cyclohexene-1-carboxyaldehyde] | – | – | 51.6 | 94.4 | – |
| CCC(=O)/C=C/C1C(C)=CCCC1(C)C (stereo not drawn) [α-Methylionone, α-methylionone] | 57.5 | 91.1 | – | – | – |
| O=CCc1ccccc1 [Phenylacetaldehyde, phenylacetaldehyde] | – | – | 31.9 | 72.2 | – |
| CCCCCCCC1CCCC1=O (centres unmarked) [2-Heptylcyclopentanone, 2-heptylcyclopentanone] | – | – | 17.1 | 70.6 | – |
| CC(CC=O)CCCC(C)(C)O (centres unmarked) [Hydroxycitronellal, hydroxycitronellal] | – | – | 24.2 | 85.3 | – |
| C=CCc1ccc(OC)cc1 [Estragole, estragole] | – | – | 94.6 | 99.4 | – |
| C=C(C)[C@@H]1CCC2=CC(=O)C[C@@H](C)[C@]2(C)C1 [Nootkatone, nootkatone] | – | – | 80.8 | 95.2 | – |
| CCC12CCC3C(C)(C)CCCC3(C)C1CCO2 (stereo not drawn) [Grisalva, 6,6,9α-trimethyl-3α-ethyldodecahydronaphtho[2,1-b]furan] | 50.4 | 77.3 | – | – | – |
| COc1ccc(C)cc1 [p-Cresyl methyl ether, p-cresyl methyl ether] | – | – | 24 | 85.9 | – |

| Molecule | Inhibition rate (%) Concentration 0.01% [1, 3] [%] | Inhibition rate (%) Concentration 0.1% [1, 4] [%] | inhibition at 0.01 wt % [1, 6] [%] | inhibition at 0.1 wt % [1, 7] [%] | further results |
| --- | --- | --- | --- | --- | --- |
| CC(=O)C1(C)CC2=C(CCCC2(C)C)CC1C (centres unmarked) [Iso E Super, 1,2,3,4,5,6,7,8-octahydro-2,3,8,8-tetramethyl-2-acetonaphthone] | 63.1 | 85.9 | – | – | – |
| CC(=O)OCCC(C)CCC=C(C)C (centres unmarked) [Citronellyl acetate, citronellyl acetate] | – | – | 44.8 | 84.2 | – |
| CCCCCC1=CCCC1=O [2-Pentylcyclopentenone, 2-pentylcyclopentenone] | 93.3 | 97.8 | – | – | – |
| CC(C=O)Cc1ccc(C(C)C)cc1 (centres unmarked) [Cyclamen aldehyde, cyclamen aldehyde] | 82.7 | 87.5 | – | – | Inhibition rate (%) Concentration 0.001% [1, 5]: 27.4% |
| CC(=O)OC(C)(C)C1CC=C(C)CC1 (centres unmarked) [Terpinyl acetate, terpinyl acetate] | 65.5 | 94.7 | – | – | – |
| CC(CCO)CCc1ccccc1 (centres unmarked) [Phenylhexanol, 3-methyl-5-phenyl-1-pentanol] | – | – | 52.1 | 61.2 | – |
| COc1ccc(C=O)cc1 [Anisaldehyde, anisaldehyde] | – | – | – | – | inhibition at 0.01 wt % [1, 8]: 15.3%; inhibition at 0.1 wt % [1, 9]: 85.9% |
| O=C1CCCC=CCCCCCCCCCC1 [5-Cyclohexadecen-1-one, 5-cyclohexadecen-1-one] | – | – | 93.9 | 98.4 | Inhibition rate (%) Concentration 0.001% [1, 5]: 65.8% |
| CC/C=C\CCOC(=O)c1ccccc1 [cis-3-Hexenyl benzoate, cis-3-hexenyl benzoate] | – | – | 45.1 | 80.6 | – |
| CC(C)=CCC/C(C)=C/CO [Geraniol, geraniol] | – | – | 56.8 | 79.8 | – |
| CC(C)=CCCC(C)=CC=O [Citral, citral] | – | – | 29.1 | 84.1 | – |
| vetiverol | 88.0 | 97.1 | – | – | – |
| O=C1CCCCCCCCCCCCCC1 [Cyclopentadecanone, cyclopentadecanone] | – | – | 35.6 | 73.3 | – |
| CC(C)=CCC/C(C)=C\CO [Nerol, nerol] | – | – | 44 | 85.7 | – |
| COC1CCCCCCCCCCC1 [Palisandin, 1-methoxycyclododecane] | – | – | 53.3 | 85 | – |
| CCCCCCCCCC(C)C=O (centres unmarked) [2-Methylundecanal, 2-methylundecanal] | – | – | 57 | 62.6 | – |
| CC(C=O)Cc1ccc(C(C)(C)C)cc1 (centres unmarked) [Lilial, 2-methyl-3-(4-tert-butylphenyl)-propanal] | – | – | 60.9 | 72.3 | – |
| O=C1CCC=CCCCCCCCCCC1 [4-Cyclopentadecen-1-one, 4-cyclopentadecen-1-one] | – | – | 93.5 | 99.1 | Inhibition rate (%) Concentration 0.001% [1, 5]: 67.2% |
| CC(C)=CCCC(C)CCO (centres unmarked) [Citronellol, citronellol] | – | – | 47.4 | 76.2 | – |
| O=C/C=C/c1ccccc1 [Cinnamic aldehyde, cinnamic aldehyde] | – | – | – | – | Inhibition rate (%) Concentration 0.001% [1, 5]: 46.4%; inhibition at 0.01 wt % [1, 8]: 96.8%; inhibition at 0.1 wt % [1, 9]: 100% |
